Legend:
Format in all cases: in vivo
[1] = tested on: giant foxtail (Setaria faberi); assay: Test G Pre-Emergence Protocol; conditions: Setaria faberi, pre-emergence, 312 h, evaluated after 13 days; for pest or weed control at 15.625 g/ha: 15.625 g ai/ha; for pest or weed control at 15.625 g/ha / pest or weed control at 250 g/ha: read-out: Foxtail, Giant damage rating (100=total damage to plant; 0=no damage to plant); for pest or weed control at 62.5 g/ha: 62.5 g ai/ha, 100=total damage to plant, 0=no damage to plant, read-out: Foxtail, Giant damage rating; for pest or weed control at 250 g/ha: 250 g ai/ha
How it was run: (§1)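 Pots of seeds in standard soil were grown for one day in a glasshouse (24/16 °C day/night, 14 h light, 65% humidity), then sprayed with compound in acetone/water 50:50 with 0.5% Tween 20 at 15.625, 62.5 or 250 g/ha. Damage was scored after 13 days on a 0 (none) to 100 (total) scale.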

[2] = tested on: barnyardgrass (Echinochloa crus-galli); assay: Test G Pre-Emergence Protocol; conditions: Echinochloa crus-galli, pre-emergence, 312 h, evaluated after 13 days; for pest or weed control at 15.625 g/ha: 15.625 g ai/ha; for pest or weed control at 15.625 g/ha / pest or weed control at 250 g/ha: read-out: Barnyardgrass damage rating (100=total damage to plant; 0=no damage to plant); for pest or weed control at 62.5 g/ha: 62.5 g ai/ha, 100=total damage to plant, 0=no damage to plant, read-out: Barnyardgrass damage rating; for pest or weed control at 250 g/ha: 250 g ai/ha
How it was run: as §1

[3] = tested on: ivy-leaved morning glory (Ipomoea hederacea); assay: Test G Pre-Emergence Protocol; conditions: Ipomoea, pre-emergence, 312 h, evaluated after 13 days; for pest or weed control at 15.625 g/ha: 15.625 g ai/ha; for pest or weed control at 15.625 g/ha / pest or weed control at 250 g/ha: read-out: Morningglory, Ivy-leaved damage rating (100=total damage to plant; 0=no damage to plant); for pest or weed control at 62.5 g/ha: 62.5 g ai/ha, 100=total damage to plant, 0=no damage to plant, read-out: Morningglory, Ivy-leaved damage rating; for pest or weed control at 250 g/ha: 250 g ai/ha
How it was run: as §1

corn (Zea mays) [4] = assay: Test G Pre-Emergence Protocol; conditions: Zea mays, pre-emergence, 312 h, evaluated after 13 days; for plant injury at 15.625 g/ha: 15.625 g ai/ha; for plant injury at 15.625 g/ha / plant injury at 250 g/ha: read-out: Corn damage rating (100=total damage to plant; 0=no damage to plant); for plant injury at 62.5 g/ha: 62.5 g ai/ha, 100=total damage to plant, 0=no damage to plant, read-out: Corn damage rating; for plant injury at 250 g/ha: 250 g ai/ha
How it was run: as §1

[5] = tested on: redroot pigweed (Amaranthus retroflexus); assay: Test G Pre-Emergence Protocol; conditions: Amaranthus retroflexus, pre-emergence, 312 h, evaluated after 13 days; for pest or weed control at 15.625 g/ha: 15.625 g ai/ha; for pest or weed control at 15.625 g/ha / pest or weed control at 250 g/ha: read-out: Pigweed, Redroot damage rating (100=total damage to plant; 0=no damage to plant); for pest or weed control at 62.5 g/ha: 62.5 g ai/ha, 100=total damage to plant, 0=no damage to plant, read-out: Pigweed, Redroot damage rating; for pest or weed control at 250 g/ha: 250 g ai/ha
How it was run: as §1

[6] = tested on: velvetleaf (Abutilon theophrasti); assay: Test G Pre-Emergence Protocol; conditions: Abutilon theophrasti, pre-emergence, 312 h, evaluated after 13 days; for pest or weed control at 15.625 g/ha: 15.625 g ai/ha; for pest or weed control at 15.625 g/ha / pest or weed control at 250 g/ha: read-out: Velvetleaf damage rating (100=total damage to plant; 0=no damage to plant); for pest or weed control at 62.5 g/ha: 62.5 g ai/ha, 100=total damage to plant, 0=no damage to plant, read-out: Velvetleaf damage rating; for pest or weed control at 250 g/ha: 250 g ai/ha
How it was run: as §1

[7] = tested on: giant foxtail (Setaria faberi); assay: Test G Post-Emergence Protocol; conditions: Setaria faberi, post-emergence, 312 h, read-out: Foxtail, Giant damage rating; for pest or weed control at 15.625 g/ha: 15.625 g ai/ha, evaluated after 13 days (100=total damage to plant; 0=no damage to plant); for pest or weed control at 62.5 g/ha: 62.5 g ai/ha; for pest or weed control at 62.5 g/ha / pest or weed control at 250 g/ha: evaluated after 13 days, 100=total damage to plant, 0=no damage to plant; for pest or weed control at 250 g/ha: 250 g ai/ha
How it was run: (§2)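 Seedlings grown 8 days in soil in a glasshouse (24/16 °C day/night, 14 h light, 65% humidity) were sprayed post-emergence with compound in acetone/water 50:50 plus 0.5% Tween 20 at 15.625, 62.5 or 250 g/ha. Damage was scored after 13 days on a 0–100 scale (100 = total damage).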

[8] = tested on: barnyardgrass (Echinochloa crus-galli); assay: Test G Post-Emergence Protocol; conditions: Echinochloa crus-galli, post-emergence, 312 h, read-out: Barnyardgrass damage rating; for pest or weed control at 15.625 g/ha: 15.625 g ai/ha, evaluated after 13 days (100=total damage to plant; 0=no damage to plant); for pest or weed control at 62.5 g/ha: 62.5 g ai/ha; for pest or weed control at 62.5 g/ha / pest or weed control at 250 g/ha: evaluated after 13 days, 100=total damage to plant, 0=no damage to plant; for pest or weed control at 250 g/ha: 250 g ai/ha
How it was run: as §2

[9] = tested on: ivy-leaved morning glory (Ipomoea hederacea); assay: Test G Post-Emergence Protocol; conditions: Ipomoea, post-emergence, 312 h, read-out: Morningglory, Ivy-leaved damage rating; for pest or weed control at 15.625 g/ha: 15.625 g ai/ha, evaluated after 13 days (100=total damage to plant; 0=no damage to plant); for pest or weed control at 62.5 g/ha: 62.5 g ai/ha; for pest or weed control at 62.5 g/ha / pest or weed control at 250 g/ha: evaluated after 13 days, 100=total damage to plant, 0=no damage to plant; for pest or weed control at 250 g/ha: 250 g ai/ha
How it was run: as §2

corn (Zea mays) [10] = assay: Test G Post-Emergence Protocol; conditions: Zea mays, post-emergence, 312 h, read-out: Corn damage rating; for plant injury at 15.625 g/ha: 15.625 g ai/ha, evaluated after 13 days (100=total damage to plant; 0=no damage to plant); for plant injury at 62.5 g/ha: 62.5 g ai/ha; for plant injury at 62.5 g/ha / plant injury at 250 g/ha: evaluated after 13 days, 100=total damage to plant, 0=no damage to plant; for plant injury at 250 g/ha: 250 g ai/ha
How it was run: as §2

[11] = tested on: redroot pigweed (Amaranthus retroflexus); assay: Test G Post-Emergence Protocol; conditions: Amaranthus retroflexus, post-emergence, 312 h, read-out: Pigweed, Redroot damage rating; for pest or weed control at 15.625 g/ha: 15.625 g ai/ha, evaluated after 13 days (100=total damage to plant; 0=no damage to plant); for pest or weed control at 62.5 g/ha: 62.5 g ai/ha; for pest or weed control at 62.5 g/ha / pest or weed control at 250 g/ha: evaluated after 13 days, 100=total damage to plant, 0=no damage to plant; for pest or weed control at 250 g/ha: 250 g ai/ha
How it was run: as §2

[12] = tested on: velvetleaf (Abutilon theophrasti); assay: Test G Post-Emergence Protocol; conditions: Abutilon theophrasti, post-emergence, 312 h, read-out: Velvetleaf damage rating; for pest or weed control at 15.625 g/ha: 15.625 g ai/ha, evaluated after 13 days (100=total damage to plant; 0=no damage to plant); for pest or weed control at 62.5 g/ha: 62.5 g ai/ha; for pest or weed control at 62.5 g/ha / pest or weed control at 250 g/ha: evaluated after 13 days, 100=total damage to plant, 0=no damage to plant; for pest or weed control at 250 g/ha: 250 g ai/ha
How it was run: as §2

| Structure (SMILES) | pest or weed control at 15.625 g/ha [1] | pest or weed control at 62.5 g/ha [1] | pest or weed control at 250 g/ha [1] | pest or weed control at 15.625 g/ha [2] | pest or weed control at 62.5 g/ha [2] | pest or weed control at 250 g/ha [2] | pest or weed control at 15.625 g/ha [3] | pest or weed control at 62.5 g/ha [3] | pest or weed control at 250 g/ha [3] | plant injury at 15.625 g/ha (corn (Zea mays) [4]) | plant injury at 62.5 g/ha (corn (Zea mays) [4]) | plant injury at 250 g/ha (corn (Zea mays) [4]) | pest or weed control at 15.625 g/ha [5] | pest or weed control at 62.5 g/ha [5] | pest or weed control at 250 g/ha [5] | pest or weed control at 15.625 g/ha [6] | pest or weed control at 62.5 g/ha [6] | pest or weed control at 250 g/ha [6] | pest or weed control at 15.625 g/ha [7] | pest or weed control at 62.5 g/ha [7] | also measured |
| --- | --- | --- | --- | --- | --- | --- | --- | --- | --- | --- | --- | --- | --- | --- | --- | --- | --- | --- | --- | --- | --- |
| Cc1c(F)cccc1NC(=O)[C@@H]1C(=O)N(C)C[C@H]1c1cccc(OCC2CC2)c1 (racemic) [Compound 1766] | 30% | 70% | 70% | 10% | 60% | 80% | 0% | 0% | 0% | 20% | 10% | 20% | 0% | 0% | 0% | 0% | 0% | 10% | 20% | 50% | pest or weed control at 250 g/ha [7]: 80%; pest or weed control at 15.625 g/ha [8]: 60%; pest or weed control at 62.5 g/ha [8]: 30%; pest or weed control at 250 g/ha [8]: 80%; pest or weed control at 15.625 g/ha [9]: 0%; pest or weed control at 62.5 g/ha [9]: 20%; pest or weed control at 250 g/ha [9]: 40%; plant injury at 15.625 g/ha (corn (Zea mays) [10]): 30%; plant injury at 62.5 g/ha (corn (Zea mays) [10]): 20%; plant injury at 250 g/ha (corn (Zea mays) [10]): 60%; pest or weed control at 15.625 g/ha [11]: 0%; pest or weed control at 62.5 g/ha [11]: 0%; pest or weed control at 250 g/ha [11]: 20%; pest or weed control at 15.625 g/ha [12]: 0%; pest or weed control at 62.5 g/ha [12]: 0%; pest or weed control at 250 g/ha [12]: 10% |
| CN1C[C@H](c2cccc(Cl)c2)[C@@H](C(=O)Nc2cnccc2C(F)(F)F)C1=O (racemic) [Compound 1772] | 30% | 80% | 90% | 0% | 10% | 80% | 0% | 0% | 60% | 0% | 0% | 60% | 0% | 0% | 10% | 0% | 0% | 40% | 10% | 60% | pest or weed control at 250 g/ha [7]: 80%; pest or weed control at 15.625 g/ha [8]: 0%; pest or weed control at 62.5 g/ha [8]: 0%; pest or weed control at 250 g/ha [8]: 30%; pest or weed control at 15.625 g/ha [9]: 0%; pest or weed control at 62.5 g/ha [9]: 30%; pest or weed control at 250 g/ha [9]: 50%; plant injury at 15.625 g/ha (corn (Zea mays) [10]): 0%; plant injury at 62.5 g/ha (corn (Zea mays) [10]): 0%; plant injury at 250 g/ha (corn (Zea mays) [10]): 60%; pest or weed control at 15.625 g/ha [11]: 0%; pest or weed control at 62.5 g/ha [11]: 0%; pest or weed control at 250 g/ha [11]: 10%; pest or weed control at 15.625 g/ha [12]: 0%; pest or weed control at 62.5 g/ha [12]: 0%; pest or weed control at 250 g/ha [12]: 30% |

From US12077503B2, “Substituted cyclic amides and their use as herbicides” (FMC CORPORATION, priority 2015, dated 2024)
